Laboratory results as given in article PMC7822874, “Chemoprotective antimalarials identified through quantitative high-throughput screening of Plasmodium blood and liver stage parasites” (Scientific Reports, 2021).
In brackets after ≈: the same amount, converted by molar mass. Like-named read-outs stand apart in the source and are kept apart here.

What was measured:
[1] = Rat liver microsomal stability (RLMS); settings: rat liver microsomes; for half-life: rat
Procedure: (§1) Pharmacokinetic modeling experiments, parallel artificial membrane permeability assay (PAMPA), solubility, and rat liver microsome stability assessment were performed on all synthetic compounds, as previously described[73]–[75].

[2] = system: P. falciparum Dd2 (clone B2) asexual blood stage parasites; assay: P. falciparum Dd2 asexual blood stage SYBR Green-I 72 h proliferation assay (qHTS); assay type: cell-based, Plasmodium falciparum; settings: Plasmodium falciparum
[3] = system: P. falciparum Dd2 Cytb A122D; assay: SYBR Green ABS proliferation assay, NCGC00473217 selected clone F12; assay type: cell-based, Plasmodium falciparum; settings: Plasmodium falciparum
Outline: (§2)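 Drug-selected Dd2 clones bearing the cytochrome b mutation were cultured at 37 °C under 5% CO2, 5% O2, 90% N2. Growth was read at 72 h by SYBR Green-I fluorescence, normalized to controls as percent response.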

Aqueous solubility = assay type: physicochemical; settings: aqueous media
Procedure: as §1

[4] = system: P. falciparum Dd2 Cytb V259L; assay: SYBR Green ABS proliferation assay, NCGC00473217 selected clone F06; assay type: cell-based, Plasmodium falciparum; settings: Plasmodium falciparum
Outline: as §2

[5] = Parallel artificial membrane permeability assay (PAMPA); assay type: in vitro ADME; settings: for PAMPA pH7.4: pH 7.4
Procedure: as §1

[6] = system: P. falciparum Dd2 Cytb G131S; assay: SYBR Green ABS proliferation assay, NCGC00374598 selected clone C11; assay type: cell-based, Plasmodium falciparum; settings: Plasmodium falciparum
Outline: as §2

[7] = system: P. falciparum Dd2 Cytb F123L; assay: SYBR Green ABS proliferation assay, NCGC00473217 selected clone G08; assay type: cell-based, Plasmodium falciparum; settings: Plasmodium falciparum
Outline: as §2

[8] = system: P. falciparum Dd2 cytochrome b mutant lines; assay: Drug response of drug-selected cytochrome b mutant lines versus parental Dd2-B2 (panel); assay type: cell-based, Plasmodium falciparum; settings: all cytochrome b mutant lines vs Dd2-B2
Procedure: As resistance selection studies implicated the parasite cytochrome bc1 complex in mediating reduced parasite susceptibility to both NCGC00473217 and NCGC00374598, we leveraged these drug-selected parasites to test for altered drug response to a panel of antimalarial compounds.
The P. falciparum parasite Dd2 line was cultured in vitro using standard conditions. […] Tissue culture flasks and assay plates were incubated at 37 °C under a gas mixture of 5% CO2, 5% O2 and 90% N2. […] Significant differences were assessed using two-sided Student’s t-tests. All HTS assays were stopped and read at 72 h. Percent response values represent relative growth as judged by SYBR Green-I fluorescence intensity values normalized to controls.

[9] = DD2, 72 h, SYBR Green 72 h, WT Dd2-B2, read-out: AC50 Log[M] ± SD, Dd2-B2 (parental line) (converted)
[10] = DD2, 72 h, SYBR Green 72 h, approximate value in μM, read-out: AC50 [μM], Dd2-B2 (parental line) (converted)
[11] = DD2, NCGC00473217 selected clone F12, read-out: AC50 [μM], Cytb A122D (converted)
[12] = DD2, NCGC00473217 selected clone, read-out: AC50 Log[M] ± SD, Cytb A122D (converted)
[13] = DD2, NCGC00473217 selected clone F06, read-out: AC50 [μM], Cytb V259L (converted)
[14] = DD2, NCGC00473217 selected clone, read-out: AC50 Log[M] ± SD, Cytb V259L (converted)
[15] = DD2, NCGC00374598 selected clone C11, read-out: AC50 [μM], Cytb G131S (converted)
[16] = DD2, NCGC00374598 selected clone, read-out: AC50 Log[M] ± SD, Cytb G131S (converted)
[17] = DD2, NCGC00473217 selected clone G08, highest concentration 29 µM, read-out: AC50 [μM], Cytb F123L (converted)
[18] = DD2, NCGC00473217 selected clone, read-out: AC50 Log[M] ± SD, Cytb F123L (converted)

Compound	half-life [1] [min]	AC50 [2, 9] [M]	AC50 [2, 10] [M]	AC50 [3, 11] [µM]	AC50 [3, 12] [µM]	solubility (Aqueous solubility) [µg/mL]	AC50 [4, 13] [µM]	AC50 [4, 14] [µM]	PAMPA pH7.4 [5]	AC50 [6, 15] [µM]	AC50 [6, 16] [µM]	AC50 [7, 17] [µM]	further results
CCCN1C(CC(C)C)=NS(=O)(=O)c2cc(NC(=O)C3CCCC3)ccc21 [NCGC00521158]	4.8	2.69e-06	2.72e-06	5.25	5.25	< 1	2.16	2.14	726 1e-6 cm/s	4.15	4.17	11.7	AC50 [7, 18]: 11.7 µM
CC(C)CC1=NS(=O)(=O)c2cc(NC(=O)c3ccc(F)s3)ccc2N1C [NCGC00651708]	> 30	1.66e-06	1.68e-06	> 29		< 1	> 29		3.07 1e-6 cm/s	> 29		> 29	RLMS T1/2 [1]: much better stability
CCCN1C(CC(C)C)=NS(=O)(=O)c2cc(NC(=O)c3sccc3Cl)ccc21 [NCGC00531529]	2.8	2.24e-06	2.25e-06	0.603	0.603	< 1	3.72	3.72	678 1e-6 cm/s	0.586	0.589	> 29	
CCCN1C(CC2CCCCC2)=NS(=O)(=O)c2cc(NC(=O)c3cccs3)ccc21 [NCGC00532404]	3.4	3.55e-07	3.56e-07	1.53	1.51	< 1	1.5	1.51		0.966	0.955	> 29	Papp ([5]; PAMPA): < 500 ×10⁻⁶ cm/s
OC(c1cc(C(F)(F)F)nc2c(C(F)(F)F)cccc12)C1CCCCN1 (stereo not drawn) [Mefloquine, mefloquine, reference compound]		7.76e-08			0.129			0.123			0.0832		AC50 ([2]; DD2, Suppl Table 6, read-out: AC50 (mM), WT (Dd2-B2)): 7.78e-08 M; AC50 ([3]; DD2, Suppl Table 6, read-out: AC50 (mM), Dd2 Cytb A122D): 0.128 µM; AC50 ([4]; DD2, Suppl Table 6, read-out: AC50 (mM), Dd2 Cytb V259L): 0.123 µM; AC50 ([6]; DD2, Suppl Table 6, read-out: AC50 (mM), Dd2 Cytb G131S): 0.0841 µM; change in susceptibility across drug-selected lines [8]: no observed change in susceptibility; AC50 [7, 18]: 0.0977 µM; AC50 ([7]; DD2, Suppl Table 6, read-out: AC50 (mM), Dd2 Cytb F123L): 0.0979 µM
CC(C)CC1=NS(=O)(=O)c2cc(NC(=O)c3cccs3)ccc2N1C [NCGC00521057]	> 30	1.86e-06	1.85e-06	> 29		1.6 (≈ 4.24 µM)	> 29		130 1e-6 cm/s	0.225	0.224	> 29	PAMPA permeability [5]: low permeability
CC(C)CC1=NS(=O)(=O)c2cc(NC(=O)c3ccc(F)cc3)ccc2N1C [NCGC00651713]	> 30		> 2.9e-05	> 29		< 1	> 29		<1 1e-6 cm/s	> 29		> 29	
CCCN1C(CC(C)C)=NS(=O)(=O)c2cc(NC(=O)Nc3nccs3)ccc21 [NCGC00537523]	7.8	2.14e-06	2.16e-06	9.29	9.33	1.2 (≈ 2.85 µM)	5.23	5.25	113 1e-6 cm/s	2.67	2.69	9.56	AC50 [7, 18]: 9.55 µM
CCCN1C(CC(C)C)=NS(=O)(=O)c2cc(NC(=O)c3ccsc3)ccc21 [NCGC00521157]	3.7	2e-06	2e-06	> 29		< 1	> 29		178 1e-6 cm/s	2.08	2.09	> 29	
CCCN1C(CC(C)C)=NS(=O)(=O)c2cc(NC(=O)c3ccc(F)s3)ccc21 [NCGC00523537]	4.4	1.12e-07	1.13e-07	0.797	0.794	< 1	0.894	0.891	1480 1e-6 cm/s	0.317	0.316	> 29	RLMS T1/2 [1]: poor stability; PAMPA permeability [5]: high permeability
CCCN1C(CC(C)C)=NS(=O)(=O)c2cc(NC(=O)c3sccc3C)ccc21 [NCGC00521035]	3.4	1.58e-06	1.59e-06	2.83	2.82	< 1	6.84	6.76	1597 1e-6 cm/s	1.65	1.66	> 29	
CCN(CC)CCCC(C)Nc1ccnc2cc(Cl)ccc12 (stereo not drawn) [chloroquine]													change in susceptibility across drug-selected lines [8]: no observed change in susceptibility
CN1C(c2ccccc2)=NS(=O)(=O)c2cc(NC(=O)c3ccc(F)cc3)ccc21 [NCGC00651719]	> 30		> 2.9e-05	> 29		< 1	> 29		3.25 1e-6 cm/s	> 29		> 29	
CN1C(CC2CCCCC2)=NS(=O)(=O)c2cc(NC(=O)c3ccc(F)cc3)ccc21 [NCGC00651716]	6.6		> 2.9e-05	> 29		< 1	> 29			> 29		> 29	
CCCN1C(CC(C)C)=NS(=O)(=O)c2cc(NC(=O)c3ccc(Cl)s3)ccc21 [NCGC00523535]	3.8	1.51e-06	1.53e-06	> 29		< 1	7.1	7.08		1	1	> 29	
CCCN1C(CC2CCCCC2)=NS(=O)(=O)c2cc(NC(=O)c3ccc(F)cc3)ccc21 [NCGC00532335]	> 30	8.91e-07	8.94e-07	3.31	3.31	< 1	> 29		<1 1e-6 cm/s	0.861	0.851	> 29	
CCCN1C(CC(C)C)=NS(=O)(=O)c2cc(NC(=O)c3sccc3F)ccc21 [NCGC00523542]	4.6	1.58e-06	1.59e-06	1.31	1.32	< 1	5.43	5.37	770 1e-6 cm/s	1.78	1.78	> 29	
CCCN1C(CC2CCC2)=NS(=O)(=O)c2cc(NC(=O)c3cccs3)ccc21 [NCGC00537664]	4.3	4.47e-07	4.48e-07	1.35	1.35	< 1	1.19	1.2		0.466	0.468	> 29	
